Laboratory results taken from PubChem BioAssay (NCI).
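Briefly, cells in 96-well plates were exposed to five compound concentrations for 48 h, and endpoints were estimated by linear interpolation. TGI denotes the concentration required for complete inhibition of growth.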

Tests used:
Test in all cases: inhibition of tumour cell growth, NCI panel, 48 h
[1] = system: HCC-2998 colon
[2] = system: SNB-19 CNS
[3] = system: M19-MEL melanoma
[4] = system: RPMI-8226 leukemia
[5] = system: SK-MEL-28 melanoma
[6] = system: ACHN renal
[7] = system: CCRF-CEM leukemia
[8] = system: KM20L2 colon
[9] = system: SNB-78 CNS
[10] = system: COLO 205 colon
[11] = system: 786-0 renal
[12] = system: HT29 colon
[13] = system: LXFL 529 NSCLC
[14] = system: HOP-62 NSCLC
[15] = system: SK-MEL-5 melanoma
[16] = system: SF-295 CNS
[17] = system: SF-268 CNS
[18] = system: SW-620 colon
[19] = system: HOP-92 NSCLC
[20] = system: DMS 114 small cell lung
[21] = system: DLD-1 colon
[22] = system: A549 NSCLC
[23] = system: SF-539 CNS
[24] = system: UACC-257 melanoma
[25] = system: MOLT-4 leukemia
[26] = system: NCI-H460 lung
[27] = system: SNB-75 CNS
[28] = system: SN12C renal
[29] = system: SK-OV-3 ovarian
[30] = system: M14 melanoma
[31] = system: OVCAR-3 ovarian
[32] = system: IGROV1 ovarian
[33] = system: OVCAR-8 ovarian
[34] = system: U251 CNS
[35] = system: CAKI-1 renal
[36] = system: A498 renal
[37] = system: UO-31 renal
[38] = system: HL-60(TB) leukemia
[39] = system: HCT-116 colon
[40] = system: EKVX NSCLC
[41] = system: OVCAR-4 ovarian
[42] = system: TK-10 renal
[43] = system: NCI-H522 lung
[44] = system: XF 498 CNS
[45] = system: K-562 leukemia
[46] = system: RXF 393 renal
[47] = system: SR leukemia
[48] = system: HOP-18 NSCLC
[49] = system: NCI-H23 lung
[50] = system: MALME-3M melanoma
[51] = system: KM12 colon
[52] = system: UACC-62 melanoma
[53] = system: LOX IMVI melanoma
[54] = system: NCI-H226 lung
[55] = system: DMS 273 small cell lung
[56] = system: OVCAR-5 ovarian
[57] = system: HCT-15 colon
[58] = system: SK-MEL-2 melanoma

Measured: TGI

COc1ccc(C2COc3c(ccc(OC)c3OC)C2=O)cc1OC (configuration not stated)
> 100 µM: [1] | [2] | [3] | [4] | [5] | [6] | [7] | [8] | [9] | [10] | [11] | [12] | [13] | [14] | [15] | [16] | [17] | [18] | [19] | [20] | [21] | [22] | [23] | [24] | [25] | [26] | [27] | [28] | [29] | [30] | [31] | [32] | [33] | [34] | [35] | [36] | [37] | [38] | [39] | [40] | [41] | [42] | [43] | [44] | [45] | [46] | [47] | [48] | [49] | [50] | [51] | [52] | [53] | [54]

COc1ccc(-c2cc(N3CCN(c4ccc(Cl)cc4)CC3)c(C#N)c(=O)o2)cc1
17.3 µM: [46]
31.3 µM: [15]
> 100 µM: [1] | [8] | [10] | [12] | [18] | [19] | [56] | [21] | [28] | [30] | [38] | [47] | [57] | [51] | [53]
5.07 µM: [41]
37.7 µM: [42]
23.8 µM: [2]
44.3 µM: [48]
7.76 µM: [44]
49.4 µM: [36]
42.4 µM: [32]
30.5 µM: [37]
32.3 µM: [22]
28.9 µM: [26]
14.6 µM: [23]
87.9 µM: [4]
16.4 µM: [16]
70.5 µM: [13]
10.8 µM: [27]
73.1 µM: [24]
23.3 µM: [5]
88.1 µM: [49]
58.2 µM: [34]
7.57 µM: [54]
34.2 µM: [9] | [35]
34.4 µM: [55]
32.7 µM: [39]
33.5 µM: [17]
35.2 µM: [6]
41.7 µM: [40]
25.6 µM: [20]
45.3 µM: [58]
19.1 µM: [33]
22.3 µM: [50]
